The source of these data is article PMC12352620, “Fragment-based discovery of dual ligand pharmacophores for lipid-sensing transcription factors for designed polypharmacology” (RSC Medicinal Chemistry, 2025).

Type in all cases: cell-based
One experiment deals with T1, THRα (Homo sapiens, UniProt P10827).
T1 construct: expressed in transfected cells; host or cells: HEK293T
T1 sequence (P10827 128-410 isoform P10827-2 limits assumed): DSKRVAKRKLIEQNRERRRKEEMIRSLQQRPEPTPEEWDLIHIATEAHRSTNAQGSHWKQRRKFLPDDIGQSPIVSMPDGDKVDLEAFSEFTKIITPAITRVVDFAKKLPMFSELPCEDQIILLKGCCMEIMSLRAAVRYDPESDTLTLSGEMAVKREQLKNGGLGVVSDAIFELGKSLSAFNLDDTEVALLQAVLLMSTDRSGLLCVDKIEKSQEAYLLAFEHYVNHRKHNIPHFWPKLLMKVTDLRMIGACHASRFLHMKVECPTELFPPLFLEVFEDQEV
In words: Gal4-hybrid reporter gene assay THRα. The note with it: mean ± S.E.M., n ≥ 3; for max. fold activation THRα: maximum reporter activation vs DMSO (0.1%) treated cells. As to the method: (§1) NR modulation was determined as described previously[45] in Gal4 hybrid reporter gene assays in HEK293T cells (German Collection of Microorganisms and Cell Culture GmbH, DSMZ) using pFR-Luc (Stratagene, La Jolla, CA, USA; reporter), pRL-SV40 (Promega, Madison, WI, USA; internal control) and the hybrid receptor clones pFA-CMV-hTHRα-LBD,[46] pFA-CMV-hPPARγ-LBD,[47] pFA-CMV-hFXR-LBD,[48] and pFA-CMV-hRXRα-LBD,[49] coding for the hinge region and ligand binding domain of the canonical isoform of the respective NR. Cells were cultured in Dulbecco's modified Eagle's medium (DMEM), high glucose supplemented with 10% fetal calf serum (FCS), sodium pyruvate (1 mM), penicillin (100 U mL^−1), and streptomycin (100 μg mL^−1) at 37 °C and 5% CO2 and seeded in 96-well plates (3 × 10^4 cells per well). After 24 h, medium was changed to Opti-MEM without supplements and cells were transiently transfected using Lipofectamine LTX reagent (Invitrogen, Carlsbad, CA, USA) according to the manufacturer's protocol. Five hours after transfection, cells were incubated with the test compounds in Opti-MEM supplemented with penicillin (100 U mL^−1), streptomycin (100 μg mL^−1) and 0.1% DMSO for 16 h before luciferase activity was measured using the Dual-Glo Luciferase Assay System (Promega) according to the manufacturer's protocol on a Tecan Spark luminometer (Tecan Deutschland GmbH, Crailsheim, Germany). Firefly luminescence was divided by Renilla luminescence and multiplied by 1000 resulting in relative light units (RLU) to normalize for transfection efficiency and cell growth. Fold activation was obtained by dividing the mean RLU of test compound by the mean RLU of the untreated control. All samples were tested in at least three biologically independent experiments in duplicates. For dose–response curve fitting and calculation of EC50 values, the equation “[agonist] vs. response − variable slope (four parameters)” was used in GraphPad Prism (version 7.00, GraphPad Software, La Jolla, CA, USA). For selectivity profiling, the hybrid reporter gene assay was performed with Gal4 fusion receptor plasmids for RARα, PPARα, PPARδ, VDR, CAR and LXRα. The following reference agonists were used: triiodothyronine (1 μM, THR), all-trans retinoic acid (1 μM, RAR), GW7647 (1 μM, PPARα), pioglitazone (1 μM, PPARγ), L165041 (1 μM, PPARδ), calcitriol (1 μM, VDR), CITCO (1 μM, CAR), T0901317 (1 μM, LXR), GW4064 (1 μM, FXR), bexarotene (1 μM, RXR).
A general note: In a reporter assay the amount or activity of a reporter protein is the signal.

A further experiment deals with T2, PPARγ (Homo sapiens, UniProt P37231).
T2 construct: expressed in transfected cells; host or cells: HEK293T
T2 sequence (P37231 238-503 limits assumed): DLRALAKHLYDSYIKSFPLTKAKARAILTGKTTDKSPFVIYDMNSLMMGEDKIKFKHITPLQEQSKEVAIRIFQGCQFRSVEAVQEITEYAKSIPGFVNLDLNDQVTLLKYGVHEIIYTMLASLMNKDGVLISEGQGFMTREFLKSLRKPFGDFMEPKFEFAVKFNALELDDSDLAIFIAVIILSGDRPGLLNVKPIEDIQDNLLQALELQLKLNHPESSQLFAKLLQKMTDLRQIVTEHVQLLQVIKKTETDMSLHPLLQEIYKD
In words: Gal4-hybrid reporter gene assay PPARγ. The note with it: mean ± S.E.M., n ≥ 3; for EC50: HEK293T, Gal4-hybrid reporter, Inactive = tested 1–300 μM; for max. fold activation PPARγ: maximum reporter activation vs DMSO (0.1%) treated cells. The method, then: as §1

For the next experiment, the target named is T3, FXR (Homo sapiens, UniProt Q96RI1).
T3 construct: expressed in transfected cells; host or cells: HEK293T
T3 sequence (Q96RI1 262-486 limits assumed): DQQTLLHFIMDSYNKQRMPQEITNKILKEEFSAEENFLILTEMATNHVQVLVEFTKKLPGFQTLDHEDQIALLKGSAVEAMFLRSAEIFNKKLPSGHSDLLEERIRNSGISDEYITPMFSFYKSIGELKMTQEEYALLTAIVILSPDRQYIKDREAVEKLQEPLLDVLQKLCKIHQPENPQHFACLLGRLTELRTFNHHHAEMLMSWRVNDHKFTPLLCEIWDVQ
Put plainly: Gal4-hybrid reporter gene assay FXR. The following applies: mean ± S.E.M., n ≥ 3; for EC50 / EC50 FXR: HEK293T, Gal4-hybrid reporter, Inactive = tested 1–300 μM; for max. fold activation FXR: maximum reporter activation vs DMSO (0.1%) treated cells. The method, then: as §1

The target in the next experiment is T4, RXRα (Homo sapiens, UniProt P19793).
T4 construct: expressed in transfected cells; host or cells: HEK293T
T4 sequence (P19793 227-458 limits assumed): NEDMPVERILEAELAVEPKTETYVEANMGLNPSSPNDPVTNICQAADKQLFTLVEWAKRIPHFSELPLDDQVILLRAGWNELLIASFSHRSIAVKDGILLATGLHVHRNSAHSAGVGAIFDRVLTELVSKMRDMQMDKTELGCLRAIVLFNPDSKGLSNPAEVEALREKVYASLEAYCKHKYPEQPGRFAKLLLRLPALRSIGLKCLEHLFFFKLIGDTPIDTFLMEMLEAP
Put plainly: Gal4-hybrid reporter gene assay RXRα. The following applies: mean ± S.E.M., n ≥ 3; for EC50 / EC50 RXRα: HEK293T, Gal4-hybrid reporter, Inactive = tested 1–300 μM; for max. fold activation RXRα: maximum reporter activation vs DMSO (0.1%) treated cells. The method, then: as §1

Setting [1] is: HEK293T, Gal4-hybrid reporter, Inactive = tested 1–300 μM.

Usually EC50 stands for the concentration giving half of the maximal effect. Regarding `O=C(O)c1coc(-c2cccc(Cl)c2)c1` [3.2, 5-(3-Chlorophenyl)furan-3-carboxylic acid], the EC50 on THRα (setting [1]) came out at 26 ± 5 µM; on PPARγ, 32 ± 2 µM; on FXR, 11 ± 2 µM; at RXRα, 14 ± 5 µM. In addition, the “max. fold activation THRα” value at THRα is reported as “(2.1 ± 0.2-fold)”. On PPARγ, the “max. fold activation PPARγ” value is recorded as “(3.2 ± 0.2-fold)”. The “max. fold activation FXR” value at FXR is given as “(1.7 ± 0.1-fold)”. Moreover, on RXRα, the “max. fold activation RXRα” value is on record as “(2.1 ± 0.2-fold)”.

As to `O=C(O)/C=C/C(=O)c1ccccc1` [4.1, (E)-4-Oxo-4-phenylbut-2-enoic acid], the “EC50 THRα” value at THRα (setting [1]) was “Inactive”. In addition, at PPARγ, the concentration giving a half-maximal response (EC50) was found to be 62 ± 2 µM and the “max. fold activation PPARγ” value was “(26 ± 2-fold)”. The “EC50 FXR” value at FXR was “Inactive”. Further, the “EC50 RXRα” value on RXRα is on record as “Inactive”.

Turning to `O=C(O)c1ccc(Oc2ccccc2)cc1` [compound 44], the figures for the 50% effective concentration (EC50) on THRα (setting [1]) and at PPARγ were 105 ± 28 µM and 99 ± 12 µM, respectively. On THRα, the “max. fold activation THRα” value is reported as “(18 ± 3-fold)”. In addition, the “max. fold activation PPARγ” value at PPARγ is given as “(38 ± 3-fold)”. Further, the “EC50 FXR” value on FXR is “Inactive”. Besides, the “EC50 RXRα” value at RXRα is on record as “Inactive”.

In turn, `O=C(O)c1ccc(-c2cccc(F)c2)o1` [compound 53] showed a concentration giving a half-maximal response (EC50) at THRα (setting [1]) of 194 ± 54 µM. The “max. fold activation THRα” value on THRα is “(5 ± 1-fold)”. On PPARγ, the EC50 was found to be 126 ± 17 µM and the “max. fold activation PPARγ” value is listed as “(14 ± 1-fold)”. Moreover, on FXR, a half-maximal effect (EC50) was put at 53 ± 10 µM and the “max. fold activation FXR” value was “(1.9 ± 0.1-fold)”. At RXRα, it took 54 ± 9 µM to reach a half-maximal effect (EC50) and the “max. fold activation RXRα” value is recorded as “(2.2 ± 0.13-fold)”.

Consider `CSc1nccn1-c1ccc(C(=O)O)cc1` [compound 30], for which a half-maximal response at THRα (setting [1]) (EC50) required 185 ± 16 µM. Further, the “max. fold activation THRα” value at THRα is recorded as “(2.5 ± 0.4-fold)”. Moreover, at PPARγ, a half-maximal response (EC50) required 53 ± 5 µM and the “max. fold activation PPARγ” value was “(2.4 ± 0.1-fold)”. At FXR, the 50% effective concentration (EC50) was found to be 162 ± 31 µM and the “max. fold activation FXR” value is on record as “(2.2 ± 0.3-fold)”. Further, on RXRα, the “EC50 RXRα” value is “Inactive”.

With `Cc1ccccc1C(=O)/C=C/C(=O)O` [4.2, (E)-4-Oxo-4-(o-tolyl)but-2-enoic acid], the 50% effective concentration (EC50) on THRα (setting [1]) stood at 31 ± 7 µM. Moreover, at THRα, the “max. fold activation THRα” value is “(2.4 ± 0.3-fold)”. Besides, on PPARγ, it took 32 ± 1 µM to reach a half-maximal effect (EC50) and the “max. fold activation PPARγ” value was “(20 ± 1-fold)”. Further, on FXR, the EC50 was 39 ± 3 µM and the “max. fold activation FXR” value is recorded as “(3.8 ± 0.4-fold)”. Further, on RXRα, the concentration for a half-maximal effect (EC50) was 50 ± 4 µM and the “max. fold activation RXRα” value is “(7 ± 2-fold)”.
